Test results reported in ChEMBL document CHEMBL1126352, “Novel stereoselective calcium channel ligands of the diphenylalkylamine-type” (Bioorg Med Chem Lett, 1992).

Target: Voltage-gated L-type calcium channel (Rattus norvegicus, UniProt P22002+Q02485+P27732)
Assay: Inhibition of [3H]nitrendipine binding to calcium channel of rat brain membranes.
Type: cell membranes, Membrane

| SMILES | Kd [M l-1] |
| --- | --- |
| CC(Cc1ccccc1)NCCC(c1ccccc1)c1ccccc1 (stereo not drawn) [PRENYLAMINE] | 2.09e-7 |
| CC(C)(C)c1ccc(CCCCN2CCC(C(O)(c3ccccc3)c3ccc(Cl)cc3)CC2)cc1 (racemic) | 1.15e-7 |
| CC(C)(C)c1ccc(CCCCN2CCC(C(O)(c3ccccc3)c3ccc(Cl)cc3)CC2)cc1 (stereo in doubt) | 9.36e-8 |
